Here are results for 23 compounds from ChEMBL document CHEMBL3046284, “Synthesis, insecticidal activity, and QSAR of novel nitromethylene neonicotinoids with tetrahydropyridine fixed cis configuration and exo-ring ether modification” (2007).

Structures are written as SMILES.

Test [1] relates to Aphis craccivora. Description: Insecticidal activity against Aphis craccivora (cowpea aphid) assessed as mortality at 500 mg/l measured after 24 hr. The test is classed as functional.
Test [2] deals with Aphis craccivora. The test can be described thus: Insecticidal activity against Aphis craccivora (cowpea aphid) assessed as mortality measured after 24 hr. In kind it is functional.

With `O=[N+]([O-])C1=C2N(Cc3ccc(Cl)nc3)CCN2C(OC/C=C\c2ccccc2)CC1` (centres undefined), in test [1], the mortality at 500 µg/mL is less than 10%.
The same measure, in the same setting: for `CCOCCOC1CCC([N+](=O)[O-])=C2N(Cc3ccc(Cl)nc3)CCN21` (centres undefined) the value was 10.2%.
With `O=[N+]([O-])C1=C2N(Cc3ccc(Cl)nc3)CCN2C(O)CC1` (centres undefined), the mortality at 500 µg/mL in test [1] is more than 90%. Besides, the LC50 in test [2] stood at 188 µM.
Taken in the same sequence, the figures for `COC1CCC([N+](=O)[O-])=C2N(Cc3ccc(Cl)nc3)CCN21` (centres undefined) were more than 90% and 132 µM.
Taken in the same sequence, the figures for `CCOC1CCC([N+](=O)[O-])=C2N(Cc3ccc(Cl)nc3)CCN21` (centres undefined) were more than 90% and 96 µM.
As for `CCCOC1CCC([N+](=O)[O-])=C2N(Cc3ccc(Cl)nc3)CCN21` (centres undefined), in test [1], the mortality at 500 µg/mL is more than 90%. The LC50 in test [2] came to 105 µM.
In the same order, the values of `CC(C)OC1CCC([N+](=O)[O-])=C2N(Cc3ccc(Cl)nc3)CCN21` (centres undefined) are more than 90% and 260 µM.
`O=[N+]([O-])C1=C2N(Cc3ccc(Cl)nc3)CCN2C(OCCCl)CC1` (centres undefined): in test [1], the mortality at 500 µg/mL stood at 44.8%.
Same read-out and setting: for `O=[N+]([O-])C1=C2N(Cc3ccc(Cl)nc3)CCN2C(OCC(F)(F)F)CC1` (centres undefined) the value was 10.3%.
Still for that read-out and setting: for `CCCCOC1CCC([N+](=O)[O-])=C2N(Cc3ccc(Cl)nc3)CCN21` (centres undefined) the value was 77.7%; for `CCC(C)OC1CCC([N+](=O)[O-])=C2N(Cc3ccc(Cl)nc3)CCN21` (centres undefined), less than 10%; for `CC(C)COC1CCC([N+](=O)[O-])=C2N(Cc3ccc(Cl)nc3)CCN21` (centres undefined), 76.3%.
Regarding `CC(C)(C)OC1CCC([N+](=O)[O-])=C2N(Cc3ccc(Cl)nc3)CCN21` (centres undefined), the mortality at 500 µg/mL in test [1] turned out to be 72.8%.
Same read-out and setting: the value for `CCCCCOC1CCC([N+](=O)[O-])=C2N(Cc3ccc(Cl)nc3)CCN21` (centres undefined) was 62.6%; that for `CC(C)CCOC1CCC([N+](=O)[O-])=C2N(Cc3ccc(Cl)nc3)CCN21` (centres undefined) was 24.4%.
Regarding `O=[N+]([O-])C1=C2N(Cc3ccc(Cl)nc3)CCN2C(OCc2ccccc2)CC1` (centres undefined), the mortality at 500 µg/mL in test [1] is more than 90%. Besides, the median lethal concentration (LC50) in test [2] stood at 573 µM.
In the case of `O=[N+]([O-])C1=C2N(Cc3ccc(Cl)nc3)CCN2C(OCc2ccc(Cl)nc2)CC1` (centres undefined), the mortality at 500 µg/mL in test [1] is 50%. The 50% lethal concentration (LC50) in test [2] came out at 1150 µM.
For the compound `C#CCOC1CCC([N+](=O)[O-])=C2N(Cc3ccc(Cl)nc3)CCN21` (centres undefined), the mortality at 500 µg/mL in test [1] was found to be 46.9%.
Same read-out and setting: the value for `CC(C)=CCOC1CCC([N+](=O)[O-])=C2N(Cc3ccc(Cl)nc3)CCN21` (centres undefined) was 15.9%.
As to `COC1CC(C)C([N+](=O)[O-])=C2N(Cc3ccc(Cl)nc3)CCN21` (centres undefined), in test [1], the mortality at 500 µg/mL was more than 90%. In addition, the 50% lethal concentration (LC50) in test [2] was 148 µM.
Taken in the same sequence, the figures for `CC1CC(O)N2CCN(Cc3ccc(Cl)nc3)C2=C1[N+](=O)[O-]` (centres undefined) were more than 90% and 97 µM.
In the same order, the values of `CCOC1CC(C)C([N+](=O)[O-])=C2N(Cc3ccc(Cl)nc3)CCN21` (centres undefined) are more than 90% and 186 µM.
Taken in the same sequence, the figures for `O=[N+]([O-])/N=C1\NCCN1Cc1ccc(Cl)nc1` [IMIDACLOPRID] were more than 90% and 35 µM.

As usually defined, the mortality is the percentage killed. One may read the LC50 as the concentration lethal to half of the exposed cells or organisms.
